Data on seven molecules can be found in ChEMBL document CHEMBL5465560, “Selectivity Literature for EUbOPEN Chemogenomic Library” (2024).

For experiment [1], the target named is T1, Dual specificity mitogen-activated protein kinase kinase 4 (Homo sapiens) (UniProt P45985).
T1 sequence (whole entry): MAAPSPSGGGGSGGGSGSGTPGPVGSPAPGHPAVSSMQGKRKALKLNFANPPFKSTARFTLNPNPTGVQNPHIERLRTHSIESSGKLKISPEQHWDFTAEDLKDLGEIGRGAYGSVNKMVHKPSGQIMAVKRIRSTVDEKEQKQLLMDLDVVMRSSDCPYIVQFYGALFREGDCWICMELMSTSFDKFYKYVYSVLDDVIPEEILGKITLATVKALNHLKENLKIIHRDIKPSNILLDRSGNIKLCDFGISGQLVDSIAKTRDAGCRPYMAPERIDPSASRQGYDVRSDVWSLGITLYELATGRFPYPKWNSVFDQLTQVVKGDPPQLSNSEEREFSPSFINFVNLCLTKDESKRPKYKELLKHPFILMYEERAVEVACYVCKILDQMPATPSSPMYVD
Briefly: Selectivity interaction (LanthaScreen Eu Kinase Binding Assay) EUB0001632a MAP2K4. Particulars: at 10 µM.

Experiment [2] has as its target T2, Ephrin type-B receptor 3 (Homo sapiens) (UniProt P54753).
T2 sequence (whole entry): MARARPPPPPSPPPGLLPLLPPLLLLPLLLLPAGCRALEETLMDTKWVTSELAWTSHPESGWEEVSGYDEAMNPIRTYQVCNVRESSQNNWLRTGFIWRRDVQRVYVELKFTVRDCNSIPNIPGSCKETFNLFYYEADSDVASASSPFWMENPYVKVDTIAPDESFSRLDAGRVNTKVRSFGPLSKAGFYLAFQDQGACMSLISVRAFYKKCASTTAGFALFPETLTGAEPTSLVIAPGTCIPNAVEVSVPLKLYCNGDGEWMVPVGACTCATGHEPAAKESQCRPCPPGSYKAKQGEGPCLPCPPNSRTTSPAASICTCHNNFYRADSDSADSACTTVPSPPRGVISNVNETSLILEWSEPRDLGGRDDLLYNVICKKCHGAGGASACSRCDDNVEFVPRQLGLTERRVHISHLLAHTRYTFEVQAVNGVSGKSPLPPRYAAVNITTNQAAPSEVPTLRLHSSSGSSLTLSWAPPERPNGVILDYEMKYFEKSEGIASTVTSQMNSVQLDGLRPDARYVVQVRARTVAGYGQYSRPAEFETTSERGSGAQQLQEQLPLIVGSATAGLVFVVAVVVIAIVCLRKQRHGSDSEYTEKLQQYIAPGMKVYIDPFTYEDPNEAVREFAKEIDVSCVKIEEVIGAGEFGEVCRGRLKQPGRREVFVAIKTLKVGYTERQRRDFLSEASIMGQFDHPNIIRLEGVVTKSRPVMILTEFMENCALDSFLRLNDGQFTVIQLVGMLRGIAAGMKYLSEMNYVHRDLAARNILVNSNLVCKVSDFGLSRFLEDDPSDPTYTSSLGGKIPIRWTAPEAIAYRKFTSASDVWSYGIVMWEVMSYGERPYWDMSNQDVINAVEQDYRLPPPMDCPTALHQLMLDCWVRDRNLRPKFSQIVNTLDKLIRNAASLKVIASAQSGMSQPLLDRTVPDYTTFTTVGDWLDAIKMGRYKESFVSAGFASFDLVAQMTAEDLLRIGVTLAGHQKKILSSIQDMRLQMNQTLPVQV
Briefly: Selectivity interaction (KinomeScan (DiscoverX)) EUB0000595a EPHB3. The following applies: at 10 µM.

Experiment [3] deals with T3, Serine/threonine-protein kinase tousled-like 1 (Homo sapiens) (UniProt Q9UKI8).
T3 sequence (whole entry): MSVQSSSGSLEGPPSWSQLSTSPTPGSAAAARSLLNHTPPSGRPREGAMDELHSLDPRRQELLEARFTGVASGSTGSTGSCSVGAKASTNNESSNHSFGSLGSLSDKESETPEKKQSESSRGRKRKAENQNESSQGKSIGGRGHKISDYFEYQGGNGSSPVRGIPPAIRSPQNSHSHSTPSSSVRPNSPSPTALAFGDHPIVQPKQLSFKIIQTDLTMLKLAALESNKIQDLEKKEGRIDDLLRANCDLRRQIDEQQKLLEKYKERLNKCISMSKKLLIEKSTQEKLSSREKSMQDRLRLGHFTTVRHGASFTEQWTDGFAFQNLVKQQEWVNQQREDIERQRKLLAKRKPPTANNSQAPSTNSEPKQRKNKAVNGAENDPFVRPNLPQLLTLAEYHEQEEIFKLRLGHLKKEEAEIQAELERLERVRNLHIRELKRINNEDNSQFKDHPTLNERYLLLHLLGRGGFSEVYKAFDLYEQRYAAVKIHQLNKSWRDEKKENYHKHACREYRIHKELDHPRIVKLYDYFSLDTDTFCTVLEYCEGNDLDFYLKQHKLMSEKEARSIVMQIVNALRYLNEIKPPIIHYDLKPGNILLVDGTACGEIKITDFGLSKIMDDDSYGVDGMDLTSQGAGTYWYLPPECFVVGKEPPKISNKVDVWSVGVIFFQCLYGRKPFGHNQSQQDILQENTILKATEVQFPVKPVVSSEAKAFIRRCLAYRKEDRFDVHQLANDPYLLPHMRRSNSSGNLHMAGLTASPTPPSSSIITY
The experiment in a line: Selectivity interaction (KinomeScan (DiscoverX)) EUB0001619a TLK1. Particulars: at 1 µM.

The target of experiment [4] is Serine/threonine-protein kinase/endoribonuclease IRE1 (Homo sapiens) (UniProt O75460). Briefly: Selectivity interaction (KinomeScan (DiscoverX)) EUB0000695a ERN1. The following applies: at 100 nM.
Serine/threonine-protein kinase/endoribonuclease IRE1 (Homo sapiens), sequence (O75460 19-977 limits assumed): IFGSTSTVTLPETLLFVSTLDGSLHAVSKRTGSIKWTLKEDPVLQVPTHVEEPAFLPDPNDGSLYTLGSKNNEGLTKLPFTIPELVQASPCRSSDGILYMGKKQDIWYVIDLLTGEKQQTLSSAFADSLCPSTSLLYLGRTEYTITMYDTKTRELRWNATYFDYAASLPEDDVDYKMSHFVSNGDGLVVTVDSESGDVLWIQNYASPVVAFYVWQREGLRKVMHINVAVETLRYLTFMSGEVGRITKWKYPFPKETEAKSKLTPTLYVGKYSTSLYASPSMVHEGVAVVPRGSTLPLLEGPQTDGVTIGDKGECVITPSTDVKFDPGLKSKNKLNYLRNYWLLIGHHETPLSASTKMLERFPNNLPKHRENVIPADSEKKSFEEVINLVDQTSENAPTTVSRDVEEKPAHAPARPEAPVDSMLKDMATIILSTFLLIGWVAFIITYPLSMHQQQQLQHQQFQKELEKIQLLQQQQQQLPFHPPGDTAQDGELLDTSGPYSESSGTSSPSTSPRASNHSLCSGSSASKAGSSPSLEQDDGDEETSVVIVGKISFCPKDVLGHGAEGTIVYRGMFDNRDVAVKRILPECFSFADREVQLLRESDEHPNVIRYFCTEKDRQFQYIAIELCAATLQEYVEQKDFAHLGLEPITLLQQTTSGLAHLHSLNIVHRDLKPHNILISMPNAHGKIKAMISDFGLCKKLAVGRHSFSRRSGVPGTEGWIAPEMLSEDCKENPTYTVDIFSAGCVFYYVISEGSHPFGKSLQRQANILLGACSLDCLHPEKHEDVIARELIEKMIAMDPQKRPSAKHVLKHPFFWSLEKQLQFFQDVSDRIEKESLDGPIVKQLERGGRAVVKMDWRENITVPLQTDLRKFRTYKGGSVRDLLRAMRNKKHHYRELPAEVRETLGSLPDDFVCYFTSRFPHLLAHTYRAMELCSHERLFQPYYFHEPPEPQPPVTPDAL
The target of experiment [5] is Serine/threonine-protein kinase pim-1 (Homo sapiens, UniProt P11309). Briefly: Selectivity interaction (KinomeScan (DiscoverX)) EUB0000666a PIM1. The following applies: at 10 µM.
Serine/threonine-protein kinase pim-1, sequence (P11309 whole entry, looked up): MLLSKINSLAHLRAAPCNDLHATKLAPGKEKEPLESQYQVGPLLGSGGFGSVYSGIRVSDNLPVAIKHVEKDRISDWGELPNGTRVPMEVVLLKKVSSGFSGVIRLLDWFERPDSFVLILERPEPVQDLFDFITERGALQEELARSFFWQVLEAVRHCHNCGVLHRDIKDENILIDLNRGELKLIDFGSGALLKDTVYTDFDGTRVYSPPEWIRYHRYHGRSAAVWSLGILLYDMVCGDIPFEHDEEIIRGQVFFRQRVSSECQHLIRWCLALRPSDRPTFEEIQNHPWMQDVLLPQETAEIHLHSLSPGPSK
For experiment [6], the target named is Serine/threonine-protein kinase PAK 1 (Homo sapiens) (UniProt Q13153). Particulars: at 10 µM.
Serine/threonine-protein kinase PAK 1 (Homo sapiens), sequence (Q13153 whole entry): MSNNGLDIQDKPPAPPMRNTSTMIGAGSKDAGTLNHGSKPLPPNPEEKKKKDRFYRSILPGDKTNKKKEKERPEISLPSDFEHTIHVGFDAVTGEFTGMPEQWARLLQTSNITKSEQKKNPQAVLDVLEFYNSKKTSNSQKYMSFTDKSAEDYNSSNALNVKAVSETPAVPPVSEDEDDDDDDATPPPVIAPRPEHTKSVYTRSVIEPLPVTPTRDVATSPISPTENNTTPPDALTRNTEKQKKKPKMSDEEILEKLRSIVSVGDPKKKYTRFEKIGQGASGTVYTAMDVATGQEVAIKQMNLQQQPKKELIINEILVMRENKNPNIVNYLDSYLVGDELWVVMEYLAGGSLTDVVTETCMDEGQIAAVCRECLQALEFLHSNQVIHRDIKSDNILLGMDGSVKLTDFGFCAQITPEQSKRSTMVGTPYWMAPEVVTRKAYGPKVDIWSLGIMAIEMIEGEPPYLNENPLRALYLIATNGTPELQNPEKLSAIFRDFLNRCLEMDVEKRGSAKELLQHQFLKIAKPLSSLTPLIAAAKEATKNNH
Experiment [7] relates to Epidermal growth factor receptor (Homo sapiens), P00533 [UNDEFINED MUTATION]. The experiment in a line: Selectivity interaction (KinomeScan (DiscoverX)) EUB0000045b EGFR. The following applies: at 10 µM.
Epidermal growth factor receptor (Homo sapiens), P00533 [UNDEFINED MUTATION], sequence (P00533 whole entry, looked up, change not shown): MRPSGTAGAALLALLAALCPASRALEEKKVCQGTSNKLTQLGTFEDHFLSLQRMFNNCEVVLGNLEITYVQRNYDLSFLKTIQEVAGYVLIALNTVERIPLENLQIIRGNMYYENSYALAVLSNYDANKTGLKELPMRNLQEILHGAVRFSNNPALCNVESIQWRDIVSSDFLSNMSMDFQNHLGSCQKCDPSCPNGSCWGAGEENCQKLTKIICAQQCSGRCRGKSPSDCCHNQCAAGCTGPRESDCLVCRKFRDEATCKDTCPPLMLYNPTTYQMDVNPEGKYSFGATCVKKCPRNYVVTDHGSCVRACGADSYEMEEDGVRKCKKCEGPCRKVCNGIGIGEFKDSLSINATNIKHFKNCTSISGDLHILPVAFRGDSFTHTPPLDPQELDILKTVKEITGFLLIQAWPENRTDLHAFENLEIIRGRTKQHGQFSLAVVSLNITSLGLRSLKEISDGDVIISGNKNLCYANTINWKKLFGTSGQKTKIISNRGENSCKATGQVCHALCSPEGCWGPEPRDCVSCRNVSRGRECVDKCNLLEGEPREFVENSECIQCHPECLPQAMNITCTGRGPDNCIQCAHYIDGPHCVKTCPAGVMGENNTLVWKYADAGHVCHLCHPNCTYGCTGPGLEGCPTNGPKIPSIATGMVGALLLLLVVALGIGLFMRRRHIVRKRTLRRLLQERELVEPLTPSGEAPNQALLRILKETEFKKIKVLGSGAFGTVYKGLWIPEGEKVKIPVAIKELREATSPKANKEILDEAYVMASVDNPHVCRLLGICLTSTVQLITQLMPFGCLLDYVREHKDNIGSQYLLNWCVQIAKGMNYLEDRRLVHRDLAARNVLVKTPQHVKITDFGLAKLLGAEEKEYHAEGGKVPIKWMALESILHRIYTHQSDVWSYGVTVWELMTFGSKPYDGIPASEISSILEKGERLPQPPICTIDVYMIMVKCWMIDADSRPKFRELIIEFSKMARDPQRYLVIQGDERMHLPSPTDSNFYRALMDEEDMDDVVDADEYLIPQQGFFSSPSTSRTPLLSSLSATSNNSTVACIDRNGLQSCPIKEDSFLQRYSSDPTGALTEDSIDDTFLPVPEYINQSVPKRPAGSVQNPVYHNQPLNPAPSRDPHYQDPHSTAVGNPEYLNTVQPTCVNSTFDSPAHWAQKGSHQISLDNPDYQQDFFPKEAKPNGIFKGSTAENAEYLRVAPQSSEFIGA

For the molecule `Cn1cc(-n2cnc3c(NCc4nc5cc(Cl)c(Cl)cc5[nH]4)nc(N4CCOCC4)nc32)cn1`, in experiment [1], the % of inhibition is -62.3%. With `COCC(=O)NC/C=C/c1ccc2ncnc(Nc3ccc(Oc4ccc(C)nc4)c(C)c3)c2c1` [CP-724714], the % of control in experiment [2] was 86%. `N#Cc1cccc(-c2c[nH]c3ncnc(N4CCOCC4)c23)c1`: the % of control in experiment [3] turned out to be 99%. Turning to `Cc1cc(F)c(C(=O)Nc2cccc(-c3nncn3C(C)C)n2)cc1-n1cnc(C2CC2)c1`, in experiment [4], the % of control was 88%. `O=C(NOC[C@H](O)CO)c1ccc(F)c(F)c1Nc1ccc(I)cc1F` showed a % of control in experiment [5] of 100%. In experiment [6], `Cc1cc([C@@H](C)Nc2ccccc2C(=O)O)c2nc(N3CCOCC3)cc(=O)n2c1` [AZD-6482] showed a % of control of 100%.

`C=CC(=O)Nc1cc(-n2c(=O)ccc3cnc4ccc(-c5ccc(NS(C)(=O)=O)cc5)cc4c32)ccc1C` registered a % of control in experiment [7] of 57%.
